Assay results taken from patent US20240246908A1 (ORION CORPORATION, priority 2021, published 2024).

Tested on: YAP-TEAD
Assay: TEAD inhibition, Hippo Pathway TEAD Reporter MCF-7 luciferase assay
Format: cell-based
Conditions: Homo sapiens, MCF7, 24 h, Hippo Pathway TEAD Reporter MCF-7 cells, luciferase activity after 24 h; read-out: IC50 of the test compounds on YAP-TEAD inhibition (Group)
Procedure, shortened: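 IC50 derived from ONE-Glo luciferase luminescence after 24 h compound exposure (11 concentrations in quadruplicate, 0.1% DMSO control). Reporter: MCF-7 line expressing firefly luciferase under TEAD elements, constitutively activated by nuclear YAP1.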

| IC50 [nM] | Structure (SMILES) |
| --- | --- |
| < 50 | COc1ccc(Oc2ccc(C(F)F)cc2)cc1NC(=O)C1CNC(=O)N1C (stereo not drawn) [Compound 149, N-(5-(4-(Difluoromethyl)phenoxy)-2-methoxyphenyl)-3-methyl-2-oxoimidazoli-dine-4-carboxamide] |
| < 50 | CN1C(=O)CC[C@H]1C(=O)Nc1cc(O[C@H]2CC[C@H](C(F)(F)F)CC2)cc2c1OCC2 [Compound 150, (S)-1-Methyl-5-oxo-N-(5-(((trans)-4-(trifluoromethyl)cyclohexyl)oxy)-2,3-dihydrobenzofuran-7-yl)pyrrolidine-2-carboxamide] |
| < 50 | CN1C(=O)CC[C@@H]1C(=O)Nc1cc(O[C@H]2CC[C@H](C(F)(F)F)CC2)cc2c1OCC2 [Compound 151, (R)-1-Methyl-5-oxo-N-(5-(((trans)-4-(trifluoromethyl)cyclohexyl)oxy)-2,3-dihydrobenzofuran-7-yl)pyrrolidine-2-carboxamide] |
| < 50 | COc1cc(F)c(Oc2ccc(C(F)(F)F)cn2)cc1NC(=O)C1COC(=O)N1C (stereo not drawn) [Compound 152, N-(4-Fluoro-2-methoxy-5-((5-(trifluoromethyl)pyridin-2-yl)oxy)phenyl)-3-methyl-2-oxooxazolidine-4-carboxamide] |
| < 50 | COc1cc(F)c(Oc2ccc(C(F)(F)F)cn2)cc1NC(=O)C1CNC(=O)N1C (stereo not drawn) [Compound 153, N-(4-Fluoro-2-methoxy-5-((5-(trifluoromethyl)pyridin-2-yl)oxy)phenyl)-3-methyl-2-oxoimidazolidine-4-carboxamide] |
| < 50 | COc1cc(F)c(Oc2ccc(C(F)(F)F)cn2)cc1NC(=O)[C@H]1COC(=O)N1C [Compound 154, (R)—N-(4-Fluoro-2-methoxy-5-((5-(trifluoromethyl)pyridin-2-yl)-oxy)phenyl)-3-methyl-2-oxooxazolidine-4-carboxamide] |
| 50 to 300 | COc1cc(F)c(Oc2ccc(C(F)(F)F)cn2)cc1NC(=O)[C@H]1CNC(=O)N1C [Compound 155, (R)—N-(4-Fluoro-2-methoxy-5-((5-(trifluoromethyl)pyridin-2-yl)oxy)phenyl)-3-methyl-2-oxoimidazolidine-4-carboxamide] |
| < 50 | CN1C(=O)NCC1C(=O)Nc1cc(Oc2ccc(C(F)(F)F)cn2)cc2c1OCC2 (stereo not drawn) [Compound 159, 3-Methyl-2-oxo-N-(5-((5-(trifluoromethyl)pyridin-2-yl)oxy)-2,3-dihydrobenzo-furan-7-yl)imidazolidine-4-carboxamide] |
| 50 to 300 | O=C1CC(C(=O)Nc2cc(Oc3ccc(C(F)(F)F)cn3)cc3c2OCC3)CCN1 (stereo not drawn) [Compound 160, 2-Oxo-N-(5-((5-(trifluoromethyl)pyridin-2-yl)oxy)-2,3-dihydrobenzofuran-7-yl)-piperidine-4-carboxamide] |
| 50 to 300 | O=C1CCC(C(=O)Nc2cc(Oc3ccc(C(F)(F)F)cn3)cc3c2OCC3)CN1 (stereo not drawn) [Compound 161, 6-Oxo-N-(5-((5-(trifluoromethyl)pyridin-2-yl)oxy)-2,3-dihydrobenzofuran-7-yl)piperidine-3-carboxamide] |
| < 50 | CN1C(=O)CC[C@@H]1C(=O)Nc1cc(Oc2ccc(C(F)(F)F)cn2)cc2c1OCC2 [Compound 162, (R)-1-Methyl-5-oxo-N-(5-((5-(trifluoromethyl)pyridin-2-yl)oxy)-2,3-dihydro-benzofuran-7-yl)pyrrolidine-2-carboxamide] |
| < 50 | CN1C(=O)CC[C@H]1C(=O)Nc1cc(Oc2ccc(C(F)(F)F)cn2)cc2c1OCC2 [Compound 163, (S)-1-Methyl-5-oxo-N-(5-((5-(trifluoromethyl)pyridin-2-yl)oxy)-2,3-dihydro-benzofuran-7-yl)pyrrolidine-2-carboxamide] |
| < 50 | O=C(Nc1cc(Oc2ccc(C(F)(F)F)cn2)cc2c1OCC2)C1CNC(=O)N1C1CC1 (stereo not drawn) [Compound 164, 3-Cyclopropyl-2-oxo-N-(5-((5-(trifluoromethyl)pyridin-2-yl)oxy)-2,3-dihydro-benzofuran-7-yl)imidazolidine-4-carboxamide] |
| < 50 | O=C(Nc1cc(Oc2ccc(C(F)(F)F)cn2)cc2c1OCC2)[C@@H]1CCC(=O)N1C1CC1 [Compound 165, (S)-1-Cyclopropyl-5-oxo-N-(5-((5-(trifluoromethyl)pyridin-2-yl)oxy)-2,3-dihydrobenzofuran-7-yl)pyrrolidine-2-carboxamide] |
| < 50 | O=C(Nc1cc(Oc2ccc(C(F)(F)F)cn2)cc2c1OCC2)[C@H]1CCC(=O)N1C1CC1 [Compound 166, (R)-1-Cyclopropyl-5-oxo-N-(5-((5-(trifluoromethyl)pyridin-2-yl)oxy)-2,3-dihydrobenzofuran-7-yl)pyrrolidine-2-carboxamide] |
| < 50 | CCN1C(=O)NCC1C(=O)Nc1cc(Oc2ccc(C(F)(F)F)cn2)cc2c1OCC2 (stereo not drawn) [Compound 167, 3-Ethyl-2-oxo-N-(5-((5-(trifluoromethyl)pyridin-2-yl)oxy)-2,3-dihydrobenzo-furan-7-yl)imidazolidine-4-carboxamide] |
| < 50 | CN1C(=O)NC[C@H]1C(=O)Nc1cc(Oc2ccc(C(F)(F)F)cn2)cc2c1OCC2 [Compound 168, (S)-3-Methyl-2-oxo-N-(5-((5-(trifluoromethyl)pyridin-2-yl)oxy)-2,3-dihydro-benzofuran-7-yl)imidazolidine-4-carboxamide] |

| IC50 [nM] | Structure (SMILES) |
| --- | --- |
| 50 to 300 | CN1C(=O)NC[C@@H]1C(=O)Nc1cc(Oc2ccc(C(F)(F)F)cn2)cc2c1OCC2 [Compound 169, (R)-3-Methyl-2-oxo-N-(5-((5-(trifluoromethyl)pyridin-2-yl)oxy)-2,3-dihydro-benzofuran-7-yl)imidazolidine-4-carboxamide] |
| < 50 | CCN1C(=O)CC[C@@H]1C(=O)Nc1cc(Oc2ccc(C(F)(F)F)cn2)cc2c1OCC2 [Compound 170, (R)-1-Ethyl-5-oxo-N-(5-((5-(trifluoromethyl)pyridin-2-yl)oxy)-2,3-dihydro-benzofuran-7-yl)pyrrolidine-2-carboxamide] |
| < 50 | CCN1C(=O)CC[C@H]1C(=O)Nc1cc(Oc2ccc(C(F)(F)F)cn2)cc2c1OCC2 [Compound 171, (S)-1-Ethyl-5-oxo-N-(5-((5-(trifluoromethyl)pyridin-2-yl)oxy)-2,3-dihydro-benzofuran-7-yl)pyrrolidine-2-carboxamide] |
| 50 to 300 | C[C@H]1Cc2cc(Oc3ccc(C(F)(F)F)cn3)cc(NC(=O)[C@H]3CCC(=O)N3C)c2O1 [Compound 172, (2R)-1-Methyl-N-(2-methyl-5-((5-(trifluoromethyl)pyridin-2-yl)oxy)-2,3-di-hydrobenzofuran-7-yl)-5-oxopyrrolidine-2-carboxamide] |
| 50 to 300 | C[C@@H]1Cc2cc(Oc3ccc(C(F)(F)F)cn3)cc(NC(=O)[C@H]3CCC(=O)N3C)c2O1 [Compound 173, (2R)-1-Methyl-N-(2-methyl-5-((5-(trifluoromethyl)pyridin-2-yl)oxy)-2,3-di-hydrobenzofuran-7-yl)-5-oxopyrrolidine-2-carboxamide] |
| 50 to 300 | CN1C(=O)CC[C@H]1C(=O)Nc1cc(Oc2ccc(C(F)(F)F)cn2)cc2c1OCCC2 [Compound 174, (S)-1-Methyl-5-oxo-N-(6-((5-(trifluoromethyl)pyridin-2-yl)oxy)chroman-8-yl)pyrrolidine-2-carboxamide] |
| < 50 | CN1C(=O)CC[C@@H]1C(=O)Nc1cc(Oc2ccc(C(F)(F)F)cn2)cc2c1OCCC2 [Compound 175, (R)-1-Methyl-5-oxo-N-(6-((5-(trifluoromethyl)pyridin-2-yl)oxy)chroman-8-yl)pyrrolidine-2-carboxamide] |
| < 50 | CN1C(=O)NCC1C(=O)Nc1cc(Oc2ccc(C(F)(F)F)cn2)cc2c1OCCC2 (stereo not drawn) [Compound 176, 3-Methyl-2-oxo-N-(6-((5-(trifluoromethyl)pyridin-2-yl)oxy)chroman-8-yl)-imidazolidine-4-carboxamide] |
| < 50 | CN1C(=O)CCC1C(=O)Nc1cc(Oc2ccc(C(F)(F)F)cn2)cc2c1OCCC2 (stereo not drawn) [Compound 177, 1-Methyl-5-oxo-N-(6-((5-(trifluoromethyl)pyridin-2-yl)oxy)chroman-8-yl)-pyrrolidine-2-carboxamide] |
| < 50 | CN1C(=O)NCC1C(=O)Nc1cc(Oc2ccc(C(F)(F)F)cn2)cc2c1OCO2 (stereo not drawn) [Compound 178, 3-Methyl-2-oxo-N-(6-((5-(trifluoromethyl)pyridin-2-yl)oxy)benzo[d]-[1,3]dioxol-4-yl)imidazolidine-4-carboxamide] |
| < 50 | O=C(Nc1cc(Oc2ccc(C(F)(F)F)cn2)cc2c1OCO2)C1CCC(=O)N1C1CC1 (stereo not drawn) [Compound 179, 1-Cyclopropyl-5-oxo-N-(6-((5-(trifluoromethyl)pyridin-2-yl)oxy)benzo[d]-[1,3]dioxol-4-yl)pyrrolidine-2-carboxamide] |
| < 50 | CN1C(=O)NC[C@H]1C(=O)Nc1cc(Oc2ccc(C(F)(F)F)cn2)cc2c1OCO2 [Compound 180, (S)-3-Methyl-2-oxo-N-(6-((5-(trifluoromethyl)pyridin-2-yl)oxy)benzo-[d][1,3]dioxol-4-yl)imidazolidine-4-carboxamide] |
| 301 to 2000 | CN1C(=O)NC[C@@H]1C(=O)Nc1cc(Oc2ccc(C(F)(F)F)cn2)cc2c1OCO2 [Compound 181, (R)-3-Methyl-2-oxo-N-(6-((5-(trifluoromethyl)pyridin-2-yl)oxy)benzo-[d][1,3]dioxol-4-yl)imidazolidine-4-carboxamide] |
| < 50 | CN1C(=O)CCC1C(=O)Nc1cc(Oc2ccc(C(F)(F)F)cc2)cc2ccoc12 (stereo not drawn) [Compound 185, 1-Methyl-5-oxo-N-(5-(4-(trifluoromethyl)phenoxy)benzofuran-7-yl)pyrrolidine-2-carboxamide] |
| < 50 | CN1C(=O)NCC1C(=O)Nc1cc(Oc2ccc(C(F)(F)F)cc2)cc2c1OCO2 (stereo not drawn) [Compound 186, 3-Methyl-2-oxo-N-(6-(4-(trifluoromethyl)phenoxy)benzo[d][1,3]dioxol-4-yl)-imidazolidine-4-carboxamide] |
| < 50 | O=C1CC(C(=O)Nc2cc(Oc3ccc(C(F)(F)F)cc3)cc3c2OCC3)CCN1 (stereo not drawn) [Compound 187, 2-Oxo-N-(5-(4-(trifluoromethyl)phenoxy)-2,3-dihydrobenzofuran-7-yl)-piperidine-4-carboxamide] |
